In patent US20220362264A1, “ABIRATERONE-CYCLIC OLIGOMER PHARMACEUTICAL FORMULATIONS AND METHODS OF FORMATION AND ADMINISTRATION THEREOF” (DISPERSOL TECHNOLOGIES, LLC., priority 2019, published 2022):

Key:
[1] = tested on: 22RV1 human prostate tumor xenograft; experiment: Anti-tumor activity in 22RV1 human prostate tumor xenograft model; assay type: in vivo, CB.17 SCID mice; conditions: low and high doses, once-daily oral gavage
Experimental: The objective of the xenograft mice study was to determine the anti-tumor activity of a composition made per Example 2.4 as a single agent versus abiraterone acetate in the 22RV1 human prostate tumor xenograft model. The study was conducted in CB.17 SCID mice injected with 22RV1 cells (5×10^6 cells/mouse) in the subcutaneous right flank. Tumors were grown to a mean tumor size between 100 and 150 mm^3 prior to study enrollment. The mice were dosed with the test article and reference once-daily by oral gavage per Table 12. Tumor volume was measured throughout the study. The study was terminated on day 26 when mean tumor volume of two experimental groups reached≥1500 mm^3.

[2] = tested on: prostate specific antigen (PSA); conditions: 1,000 mg daily, well controlled trials; cited from earlier work
[3] = Phase solubility analysis of abiraterone-HPBCD; assay type: physicochemical; conditions: with HPBCD, in 0.01N HCl and FaSSIF
Experimental: Phase Solubility Analysis. Phase solubility analysis was conducted in two separate media, i.e., 0.01N HCl (pH 2.0) and FaSSIF (prepared in 50 mMol Phosphate Buffer pH 6.8). Solutions of HPBCD ranging from 0 mg/mL to 600 mg/mL were prepared in each media in scintillation vials. An excess of abiraterone was added to each vial and the vials were sonicated for 30 minutes and placed on a bench. Samples were pulled from each vial at time points of 48 hrs and 7 days. The samples were centrifuged using an ultracentrifuge (Eppendrof, Hamburg, Germany) The supernatants were further diluted using the HPLC diluent and analyzed by HPLC method mentioned above to find the concentration of abiraterone.

[4] = cited from earlier work

Structure (SMILES): CC(=O)O[C@H]1CC[C@@]2(C)C(=CC[C@@H]3[C@@H]2CC[C@]2(C)C(c4cccnc4)=CC[C@@H]32)C1 [Abiraterone Acetate, (3β)-17-(3-pyridinyl)androsta-5, 16-dien-3-ol acetate]
- tumor growth relative to vehicle control [1]: did not result in statistically different tumor growth
- treated patients achieving target PSA reductions [2]: up to 60%

Structure (SMILES): C[C@]12CC[C@H](O)CC1=CC[C@@H]1[C@@H]2CC[C@]2(C)C(c3cccnc3)=CC[C@@H]12 [Abiraterone, (3β)-17-(3-pyridinyl)androsta-5,16-dien-3-ol]
- type of solution state phase solubility profile (Higuchi and Connors) [3]: A-type
- pKa [4]: 4.81
